Laboratory results published in patent US20170320848A1, “COMPOUNDS FOR USE IN ANTHELMINTHIC TREATMENT” (Bayer Animal Health GMBH, priority 2014, published 2017).

Columns and labels:
Haemonchus contortus = Haemonchus contortus assay (HAEMCO), larval mortality; type: cell-based; settings: Haemonchus contortus, 120 h; application rate 20 ppm, after 5 days; read-out: activity (percentage of larval mortality)
Procedure: Haemonchus Contortus—Assay (HAEMCO)
(§1) Solvent: dimethyl sulfoxide
(§2) To produce a suitable preparation, 10 mg of active compound are dissolved in 0.5 ml solvent, and the concentrate is diluted with “Ringer's solution” to the desired concentration.
Approximately 40 larvae of the red stomach worm (Haemonchus contortus) are transferred into a test tube containing compound solution.
After 5 days percentage of larval mortality are recorded. 100% efficacy means all larvae are killed, 0% efficacy means no larvae are killed.

Cooperia curticei = Cooperia curticei assay (COOPCU), larval mortality; type: cell-based; settings: Cooperia curticei, 120 h; application rate 20 ppm, after 5 days; read-out: activity (percentage of larval mortality)
Procedure: Cooperia Curticei—Assay (COOPCU)
as §1, §2
Approximately 40 nematode larvae (Cooperia curticei) are transferred into a test tube containing the compound solution.
After 5 days percentage of larval mortality is recorded. 100% efficacy means all larvae are killed; 0% efficacy means no larvae are killed.

[1] = test system: Nippostrongylus brasiliensis; test: Nippostrongylus brasiliensis assay (NIPOBR), acetylcholine esterase readout; type: cell-based; settings: read-out: activity (reduction of AChE compared to negative control)
Procedure: Nippostrongylus Brasiliensis—Assay (NIPOBR)
Adult Nippostrongylus brasiliensis were washed with saline buffer containing 100 U/ml penicillin, 0.1 mg/ml streptomycin and 2.5 μg/ml amphotericin B. Test compounds were dissolved in DMSO and worms were incubated in medium in a final concentration of 10 μg/ml (10 ppm) respectively 1 μg/ml (1 ppm). An aliquot of the medium was used to determine the acetylcholine esterase activity in comparison to a negative control. The principle of measuring acetylcholine esterase as readout for anthelmintic activity was described in Rapson et al (1986) and Rapson et al (1987).

Meloidogyne incognita = Meloidogyne incognita assay (MELGIN), gall formation on salad seedlings; type: in vivo; settings: application rate 20 ppm, after 14 days
Procedure: Meloidogyne Incognita—Assay (MELGIN)
Solvent: 125.0 parts by weight of acetone
To produce a suitable preparation, 1 part by weight of active compound is mixed with the stated amount of solvent, and the concentrate is diluted with water to the desired concentration.
Vessels are filled with sand, a solution of the active ingredient, a suspension containing eggs and larvae of the southern root-knot nematode (Meloidogyne incognita) and salad seeds. The salad seeds germinate and the seedlings grow. Galls develop in the roots.
After 14 days the nematicidal activity is determined on the basis of the percentage of gall formation. 100% means no galls were found and 0% means the number of galls found on the roots of the treated plants was equal to that in untreated control plants.

[2] = Measurement of LogP values by HPLC on reversed phase columns (EEC directive 79/831 Annex V.A8); type: physicochemical; settings: acidic range, 0.1% formic acid in water and acetonitrile as eluent, read-out: logP (HCOOH)[a]

| SMILES | mortality at 20 ppm (Haemonchus contortus) [%] | mortality at 20 ppm (Cooperia curticei) [%] | inhibition at 10 µg/mL [1] [%] | nematicidal activity (percentage of gall formation) (Meloidogyne incognita) [%] | chromatographic logP [2] |
| --- | --- | --- | --- | --- | --- |
| O=C(NCC(F)(F)c1ccc(-c2ccc(F)cc2)cc1C(F)(F)F)c1cccnc1C(F)(F)F [Example 17, N-(2,2-Difluoro-2-(4′-fluoro-3-(trifluoromethyl)-[1,1′-biphenyl]-4-yl)ethyl)-2-(trifluoromethyl)-nicotinamide] | 100 | 100 | ≥ 75 | 90 |  |
| O=C(NCC(F)(F)c1ccc(-c2ccc(C(F)(F)F)c(F)c2)cc1Cl)c1ccccc1C(F)(F)F [Example 22] | 90 | 100 | ≥ 75 |  | 4.62 |
| O=C(NCC(F)(F)c1ccc(-c2ccc(SC(F)(F)F)cc2)cc1Cl)c1ccccc1C(F)(F)F [Example 23] | 100 | 100 | ≥ 75 |  | 4.98 |
| N#Cc1ccc(-c2ccc(C(F)(F)CNC(=O)c3ccccc3C(F)(F)F)c(Cl)c2)cc1F [Example 25] | 100 | 100 | ≥ 75 | 100 | 3.77 |
| N#Cc1ccc(-c2ccc(C(F)(F)CNC(=O)c3ccccc3C(F)(F)F)c(Cl)c2)cc1 [Example 27] | 100 | 100 | ≥ 75 | 100 | 3.62 |
| O=C(NCC(F)(F)c1ccc(-c2cc(F)c(F)c(F)c2)cc1Cl)c1ccccc1C(F)(F)F [Example 32] | 100 | 100 | ≥ 75 | 100 | 4.44 |
| O=C(NCC(F)(F)c1ccc(-c2ccc(F)c(F)c2)cc1Cl)c1ccccc1C(F)(F)F [Example 33] | 100 | 100 | ≥ 75 |  | 4.26 |
| O=C(NCC(F)(F)c1ccc(-c2cc(F)cc(F)c2)cc1Cl)c1ccccc1C(F)(F)F [Example 35] | 100 | 100 | ≥ 75 | 100 | 4.3 |
| O=C(NCC(F)(F)c1ccc(-c2ccc(F)cc2F)cc1Cl)c1ccccc1C(F)(F)F [Example 36] | 100 | 100 | ≥ 75 |  | 4.22 |
| COc1cc(-c2ccc(F)cc2)ccc1C(F)(F)CNC(=O)c1ccccc1C(F)(F)F [Example 37] | 90 | 100 | ≥ 75 |  | 3.89 |
| Cc1cc(-c2ccc(F)cc2)ccc1C(F)(F)CNC(=O)c1ccccc1C(F)(F)F [Example 38] | 100 | 100 | ≥ 75 | 100 | 4.16 |
